# Data as given in paper PMC9943626, “CS27109, A Selective Thyroid Hormone Receptor-β Agonist Alleviates Metabolic-Associated Fatty Liver Disease in Murine Models” (International Journal of Endocrinology, 2023).
# Like-named read-outs stand apart in the source and are kept apart here.
# Experiments:
# [1] = Tissue distribution in SD rat; assay type: in vivo; details: for concentration at 2 h / concentration at 8 h: male, 10 mg/kg oral gavage once
# Excerpt: [Worded in the source for another organism; this organism is reported under the same test.] Half of mice for each group (n = 3) were sacrificed 2H and 8H after drug administration, respectively. Blood, heart, and liver were collected at each time point. Blood was processed and detected as mentioned previously. The heart and liver were homogenized and added extractant. The protein of tissue samples was precipitated by vortex oscillation, and the supernatant was collected and determined by LC-MS/MS procedures.
# HFD-CHOL hamster model = assay: HFD-CHOL hamster model, serum biochemical test; assay type: in vivo, golden hamster; details: 10 mg/kg (CS27109-M, MGL-3196) oral once a day 4 weeks, mean ± SD
# Description: Hamster study: 58 golden hamsters ♂ aged 6–8 weeks were purchased from Beijing Vital River Laboratory Animal Technology Co., Ltd. 10 animals were kept with a diet of food control as normal control, and the other 48 animals were fed 40% fat and 1.25% cholesterol (HFD-CHOL, D12108C, Research diet) as a model group. […] Animals in the normal and model group were given solvent by oral gavage. All drugs, including solvent, were administered consecutively for 4 weeks and once a day. After sacrifice, blood was collected and serum was isolated for the AST, ALT, TG, TC, LDL-c, and HDL-c test.
# HFD SD rat model = assay: HFD SD rat model, biochemical, organ weight ratio, liver lipid and liver pathology; assay type: in vivo
# Description: SD rat study: 58 SD rats ♂ aged 5–6 weeks were purchased from Beijing Huafukang Biotechnology Co., Ltd. 9 animals were kept with a food control diet as normal control, and the other 49 animals were fed 40% fat, 1.25% cholesterol and 0.5% sodium cholate (HFD, D12109C, SYSE BIO, Changzhou, China) as a model group. […] Animals in the normal and model groups were given solvent by oral gavage. All drugs, including solvent, were administered consecutively for 4 weeks and once a day. After sacrifice, blood was collected and serum was isolated for the AST, ALT, TG, TC, LDL-c, and HDL-c test, and livers and hearts were weighed to calculate the liver weight ratio and the heart weight ratio, respectively. The right lobe of the liver of each rat was harvested for the TG and TC test (A110-1-1 and A111-1-1, Nanjing Jiancheng Institute of Bioengineering, Nanjing, China) according to the manufacturer's instructions. The left lobe of the liver was collected for hematoxylin-eosin staining (H and E staining) to quantify liver steatosis, inflammation, and ballooning.
# (§1) The liver samples were fixed in 10% formalin and embedded in paraffin using standard methods. The 4 μm paraffin sections were then assessed for liver histology by H and E staining and liver fibrosis by sirius red staining. The stained sections were panoramic scanned with a NanoZoomer Digital Pathology scanner (S210, Hamamatsu, Japan), and then observed with different visual fields at different magnifications, and scored for different liver lobes in the sections. The total NAS score represents the sum of the scores for steatosis (0–3), lobular inflammation (0–3), and ballooning (0–2), and ranges from 0–8 [30]. VIS7.0 software was used to analyze the area of liver fibrosis in the panoramic scanning SR staining sections, and the percentage of liver fibrosis area in the whole section area was calculated.
# WD + CCL4 mouse model = assay: WD + CCL4 mouse model, biochemical, liver weight ratio and liver pathology; assay type: in vivo, C57/B6 mouse
# Description: C57/B6 mouse study: 61 C57/B6 mice ♂ aged 6–7 weeks were purchased from Beijing Vital River Laboratory Animal Technology Co., Ltd. Six animals were kept with a chow diet as normal control, and the other 55 animals were fed 60% fat diet (Western diet, D12492, Research diet) as the model group. […] Animals in the normal and model groups were given solvent by oral gavage. All drugs, including solvent, were administered consecutively for 4 weeks and once a day. After sacrifice, blood was collected and serum was isolated for the AST, ALT, TG, TC, LDL-c, HDL-c, and CK tests, and the livers were weighed to calculate the liver weight ratio. The left lobe of the liver of each mouse was collected for hematoxylin-eosin staining (H and E staining) and sirius red staining.
# as §1
# [2] = Observation of diarrhea in treated animals; assay type: in vivo, rodents; details: animal studies
# [3] = heart, read-out: Heart concentration
# [4] = liver, read-out: Liver concentration
# [5] = serum, read-out: Serum concentration
# [6] = WD + CCL4 mouse, 4 weeks, MGL3196 10 mg/kg, CS27109 high-dose (30 mg/kg), vs model
compound,measurement,setting,value
"CC(C)c1cc(Oc2c(Cl)cc(-n3nc(C#N)c(=O)[nH]c3=O)cc2Cl)n[nH]c1=O [MGL3196, 2-[3,5-dichloro-4-(5-isopropyl-6-oxo-1,6-dihydropyridazin-3-yloxy)phenyl]-3,5-dio xo-2,3,4,5-tetrahydro[1,2,4]triazine-6-carbonitrile, reference compound]",average of concentration liver/heart,"[1]; 10 mg/kg oral, average of 2H and 8H",22.325
same,concentration at 2 h,[1]; [3],156 ng/g
same,concentration at 8 h,[1]; [3],128 ng/g
same,concentration at 2 h,[1]; [4],3850 ng/g
same,concentration at 8 h,[1]; [4],2550 ng/g
same,concentration at 2 h,[1]; [5],1400 ng/mL
same,concentration at 8 h,[1]; [5],506 ng/mL
same,HDL-c,"HFD-CHOL hamster model; model 3.6 ± 1.1, normal 1.6 ± 0.45",2.9 ± 0.36 mmol/L
same,LDL-c,"HFD-CHOL hamster model; model 17 ± 6.1, normal 1.3 ± 0.54",8.6 ± 3.3 mmol/L
same,TG,"HFD-CHOL hamster model; model 26 ± 24, normal 2.1 ± 1.1",5.9 ± 5.6 mmol/L
same,TC,"HFD-CHOL hamster model; model 37 ± 13, normal 3.1 ± 0.72",18 ± 6.3 mmol/L
same,ALT,"HFD-CHOL hamster model; model 278 ± 174, normal 94 ± 58",206 ± 47 U/L
same,AST,"HFD-CHOL hamster model; model 638 ± 323, normal 98 ± 45",752 ± 261 U/L
same,Liver TC,"HFD SD rat model; HFD SD rat liver, 15 mg/kg (CS27109-M, MGL-3196) oral once a day 4 weeks, mean ± SD, model 13 ± 2.2, normal 6.0 ± 0.76",12 ± 1.7 µmol/g
same,Liver TG,"HFD SD rat model; HFD SD rat liver, 15 mg/kg (CS27109-M, MGL-3196) oral once a day 4 weeks, mean ± SD, model 102 ± 36, normal 0.75 ± 12",113 ± 38 µmol/g
same,TG,"HFD SD rat model; HFD SD rat serum, 15 mg/kg (CS27109-M, MGL-3196) oral once a day 4 weeks, mean ± SD, model 0.82 ± 0.73, normal 0.53 ± 0.34",0.11 ± 0.03^∗∗∗ mmol/L
same,HDL-c,"HFD SD rat model; HFD SD rat serum, 15 mg/kg (CS27109-M, MGL-3196) oral once a day 4 weeks, mean ± SD, model 1.2 ± 0.44, normal 1.1 ± 0.13",0.94 ± 0.26 mmol/L
same,LDL-c,"HFD SD rat model; HFD SD rat serum, 15 mg/kg (CS27109-M, MGL-3196) oral once a day 4 weeks, mean ± SD, model 9.7 ± 6.1, normal 0.28 ± 0.06",1.1 ± 0.65 mmol/L
same,TC,"HFD SD rat model; HFD SD rat serum, 15 mg/kg (CS27109-M, MGL-3196) oral once a day 4 weeks, mean ± SD, model 20 ± 13, normal 1.5 ± 0.20",3.3 ± 1.3 mmol/L
same,ALT,"HFD SD rat model; HFD SD rat serum, 15 mg/kg (CS27109-M, MGL-3196) oral once a day 4 weeks, mean ± SD, model 166 ± 95, normal 32 ± 6.8",74 ± 24 U/L
same,AST,"HFD SD rat model; HFD SD rat serum, 15 mg/kg (CS27109-M, MGL-3196) oral once a day 4 weeks, mean ± SD, model 365 ± 212, normal 103 ± 21",185 ± 66 U/L
same,NAS score,"HFD SD rat model; HFD SD rat, 4 weeks, 15 mg/kg, vs model","tendency to reduce the NAS score, but without significance"
same,liver steatosis score (H and E),"HFD SD rat model; HFD SD rat, 4 weeks, CS27109 5-45 mg/kg dose-dependent, MGL3196 15 mg/kg, vs model",lessened steatosis
same,LDL-c,"WD + CCL4 mouse model; WD + CCL4 mouse serum, 10 mg/kg (CS27109-M, MGL-3196) oral once a day 4 weeks, mean ± SD, model 1.1 ± 0.35, normal 0.43 ± 0.04",0.33 ± 0.05 mmol/L
same,TG,"WD + CCL4 mouse model; WD + CCL4 mouse serum, 10 mg/kg (CS27109-M, MGL-3196) oral once a day 4 weeks, mean ± SD, model 1.2 ± 0.34, normal 0.91 ± 0.14",1.0 ± 0.23 mmol/L
same,HDL-c,"WD + CCL4 mouse model; WD + CCL4 mouse serum, 10 mg/kg (CS27109-M, MGL-3196) oral once a day 4 weeks, mean ± SD, model 1.5 ± 0.25, normal 2.0 ± 0.08",1.2 ± 0.13 mmol/L
same,TC,"WD + CCL4 mouse model; WD + CCL4 mouse serum, 10 mg/kg (CS27109-M, MGL-3196) oral once a day 4 weeks, mean ± SD, model 4.1 ± 0.97, normal 3.0 ± 0.10",1.9 ± 0.17 mmol/L
same,CK activity,"WD + CCL4 mouse model; WD + CCL4 mouse serum, 10 mg/kg (CS27109-M, MGL-3196) oral once a day 4 weeks, mean ± SD, model 345 ± 268, normal 334 ± 193",197 ± 129 U/L
same,AST,"WD + CCL4 mouse model; WD + CCL4 mouse serum, 10 mg/kg (CS27109-M, MGL-3196) oral once a day 4 weeks, mean ± SD, model 10245 ± 4955, normal 116 ± 71",2178 ± 769 U/L
same,ALT,"WD + CCL4 mouse model; WD + CCL4 mouse serum, 10 mg/kg (CS27109-M, MGL-3196) oral once a day 4 weeks, mean ± SD, model 14003 ± 4205, normal 54 ± 15",4658 ± 1639 U/L
same,liver inflammation score (H and E),WD + CCL4 mouse model; [6],notable reduction
same,liver steatosis score (H and E),WD + CCL4 mouse model; [6],notable reduction
same,area of liver fibrosis (sirius red),"WD + CCL4 mouse model; WD + CCL4 mouse, 4 weeks, three doses of CS27109 (3, 10, 30 mg/kg), MGL3196 10 mg/kg, vs model",prominently reduced the area of the fibrosis
same,diarrhea in treated animals,[2],exhibit diarrhea
